The values below come from patent publication US20230173089A1, “Q-ER PEPTIDE” (Biotempt B.V., priority 2019, published 2023).

In one assay the test system is mTOR. To be noted: cited from earlier work; for activity as activators of mTOR or inhibitors of autophagy compared with other amino acids: alone or in combination.
For the next assay, the system named is Human monocytes. As to the kind of experiment: monocyte chemotaxis in 48-well microchemotaxis chamber. The format is cell-based. To be noted: for chemotactic activity at a stated concentration: 0.1 mmol/L; for induction of monocyte chemotaxis: 10-9 to 10-5 mol/L; for peptide derived chemotactic activity under competition with VGVAPG: competition with SEQ ID NO:19; for monocyte chemotaxis in the presence of glucose, fructose, or mannose: control sugars; for monocyte chemotaxis in the presence of lactose: lactose dissociates the 67-kD ERC; for chemotactic response to f-MLF after preincubation of monocytic cells with peptide: preincubation 30 minutes; for chemotactic potency compared with f-MLF: same concentration of f-MLF. On the procedure: Human monocytes are isolated from freshly drawn blood of healthy volunteers using serial […] gradient centrifugation, as described elsewhere. Cells are cultured for 16 hours in RPMI-1640 media supplemented with 0.5% human serum to become quiescent after isolation. Purity of the cells is >95% as determined by flow cytometry analysis. Monocyte chemotaxis is assayed in a 48-well microchemotaxis chamber (Neuroprobe, Gaithersburg, MD) in serum-free media. Wells in the upper and lower chamber are separated by a polyvinylpyrrolidone-free polycarbonate membrane (pore size 5 µm; Costar). Freshly isolated monocytes at a density of 5 × 10^5/mL are incubated for 2.5 hours with recombinant C-peptide (Sigma), before migrated cells on the bottom face of the filter are stained and counted under the light microscope. Maximal chemotactic activity is measured with […] N -formyl-methionyl-leucyl-phenylalanine (f-MLF; Sigma Chemical Co), and checkerboard analysis is used to distinguish chemotaxis from chemokinesis.
Chemotaxis is tested with SEQ ID NO:12 ([…]), SEQ ID NO:11 ([…]), SEQ ID NO:24 ([…]) or SEQ ID NO:25 ([…]). Exposure of cells to lactose is used to specifically dissociate the 67-kD ERC. Controls for lactose included glucose, fructose, and mannose, none of which affect the 67-kD ERC. In each case, monocytes cells are exposed to the relevant concentrations of SEQ ID NO:12 ([…]), SEQ ID NO:11 ([…]), SEQ ID NO:24 ([…]) or SEQ ID NO:25 ([…]) (10-9 to 10-5 mol/L), for 30 minutes before the chemotaxis assays are started. […] Monocytes in the upper wells of the assay chamber are exposed to varying concentrations of SEQ ID NO:12 ([…]), SEQ ID NO:11 ([…]), SEQ ID NO:24 ([…]) or SEQ ID NO:25 ([…]) for 30 minutes before stimulation by SEQ ID NO:19 (VGVAPG) (0.1 nmol/L - 10 nmol/L) in the lower wells. […] SEQ ID NO:12 ([…]), SEQ ID NO:11 ([…]), SEQ ID NO:24 ([…]), or SEQ ID NO:25 ([…]) derived chemotactic activity is eliminated by competition with Val-Gly-Val-[…]-Pro-Gly (SEQ ID NO:19 (VGVAPG)), a repetitive peptide found in human elastin that binds to cellular elastin receptors. Monocyte chemotaxis in response to both SEQ ID NO:19 (VGVAPG) or SEQ ID NO:12 ([…]), SEQ ID NO:11 ([…]), SEQ ID NO:24 ([…]), or SEQ ID NO:25 ([…]) is abolished in the presence of lactose, a galactosugar that specifically dissociates the 67-kD ERC, but it is unaffected by glucose, fructose, or mannose.

Take `C[C@H](N)C(=O)O` [L-Alanine]: in the assay on mTOR, the “activity as activators of mTOR or inhibitors of autophagy compared with other amino acids” value is given as “more potent” and the “mTOR associated autophagic inhibitory effects on human cells” value is reported as “most prominent”.

`N=C(N)NCCC[C@H](N)C(=O)O` [L-Arginine]: the “activity as activators of mTOR or inhibitors of autophagy compared with other amino acids” value in the assay with mTOR was “more potent”.

Turning to `N[C@@H](CCC(=O)O)C(=O)O` [L-Glutamic Acid], the “activity as activators of mTOR or inhibitors of autophagy compared with other amino acids” value in the assay on mTOR is recorded as “no or opposite effects”.

As to `NCC(=O)O` [L-Glycine], in the assay on mTOR, the “activity as activators of mTOR or inhibitors of autophagy compared with other amino acids” value is recorded as “more potent” and the “amino-acid-stimulated mTOR complex 1 activation” value is reported as “improves”.

Regarding `CC[C@H](C)[C@H](N)C(=O)O` [L-Isoleucine], the “activity as activators of mTOR or inhibitors of autophagy compared with other amino acids” value with mTOR was “more potent”.

As to `CC(C)C[C@H](N)C(=O)O` [L-Leucine], in the assay with mTOR, the “activity as activators of mTOR or inhibitors of autophagy compared with other amino acids” value is on record as “more potent” and the “mTOR associated autophagic inhibitory effects on human cells” value is on record as “most prominent”.

As to `NCCCC[C@H](N)C(=O)O` [L-Lysine], the “activity as activators of mTOR or inhibitors of autophagy compared with other amino acids” value with mTOR was “no or opposite effects”.

Take `CSCC[C@H](N)C(=O)O` [L-Methionine]: the “activity as activators of mTOR or inhibitors of autophagy compared with other amino acids” value in the assay with mTOR is reported as “no or opposite effects”.

With `N[C@@H](Cc1ccccc1)C(=O)O` [L-Phenylalanine], in the assay on mTOR, the “activity as activators of mTOR or inhibitors of autophagy compared with other amino acids” value was “no or opposite effects”.

`O=C(O)[C@@H]1CCCN1` [L-Proline]: in the assay with mTOR, the “activity as activators of mTOR or inhibitors of autophagy compared with other amino acids” value was “more potent” and the “mTOR associated autophagic inhibitory effects on human cells” value is “most prominent”.

As for `N[C@@H](CO)C(=O)O` [L-Serine], in the assay on mTOR, the “activity as activators of mTOR or inhibitors of autophagy compared with other amino acids” value is listed as “no or opposite effects”.

On to `C[C@@H](O)[C@H](N)C(=O)O` [L-Threonine], for which the “activity as activators of mTOR or inhibitors of autophagy compared with other amino acids” value with mTOR is given as “no or opposite effects”.

Consider `N[C@@H](Cc1ccc(O)cc1)C(=O)O` [L-Tyrosine], for which the “activity as activators of mTOR or inhibitors of autophagy compared with other amino acids” value in the assay with mTOR is recorded as “no or opposite effects”.

As to `CC(C)[C@H](N)C(=O)O` [L-Valine], the “activity as activators of mTOR or inhibitors of autophagy compared with other amino acids” value in the assay with mTOR was “more potent”.

In the case of “AQGVLPGQ (Immunomodulatory peptide) [SEQ ID NO:11]”, in the assay on Human monocytes, the “chemotactic activity at a stated concentration” value was “good activity”; the “induction of monocyte chemotaxis” value is “induce chemotaxis in a concentration-dependent manner”; the “peptide derived chemotactic activity under competition with VGVAPG” value (“peptide derived chemotactic activity” for short) is “eliminated”; the “monocyte chemotaxis in the presence of glucose, fructose, or mannose” value (from here on “monocyte chemotaxis … or mannose”) was “unaffected”. Also, in the assay with Human monocytes, the “monocyte chemotaxis in the presence of lactose” value (shortened to “monocyte chemotaxis … of lactose”) is reported as “abolished”, the “chemotactic response to f-MLF after preincubation of monocytic cells with peptide” value (“chemotactic response to f-MLF” below) is “does not alter” and the “chemotactic potency compared with f-MLF” value was “considerably more potent”.

With “AQGVQPGQ (Immunomodulatory peptide) [SEQ ID NO:25]”, in the assay on Human monocytes, the “chemotactic activity at a stated concentration” value was “good activity”; the “induction of monocyte chemotaxis” value is reported as “induce chemotaxis in a concentration-dependent manner”; the “peptide derived chemotactic activity” value is reported as “eliminated”; the “monocyte chemotaxis … or mannose” value is “unaffected”. Moreover, in the assay on Human monocytes, the “monocyte chemotaxis … of lactose” value is “abolished”, the “chemotactic response to f-MLF” value is listed as “does not alter” and the “chemotactic potency compared with f-MLF” value is recorded as “considerably more potent”.

Take “LQGVLPGQ (Immunomodulatory peptide) [SEQ ID NO:12]”: in the assay on Human monocytes, the “chemotactic activity at a stated concentration” value is on record as “good activity”; the “induction of monocyte chemotaxis” value is on record as “induce chemotaxis in a concentration-dependent manner”; the “peptide derived chemotactic activity” value is given as “eliminated”; the “monocyte chemotaxis … or mannose” value was “unaffected”. For the same compound, in the assay with Human monocytes, the “monocyte chemotaxis … of lactose” value is reported as “abolished”, the “chemotactic response to f-MLF” value is reported as “does not alter” and the “chemotactic potency compared with f-MLF” value is “considerably more potent”.

Turning to “LQGVQPGQ (Immunomodulatory peptide) [SEQ ID NO:24]”, in the assay on Human monocytes, the “chemotactic activity at a stated concentration” value is recorded as “good activity”; the “induction of monocyte chemotaxis” value is on record as “induce chemotaxis in a concentration-dependent manner”; the “peptide derived chemotactic activity” value is “eliminated”; the “monocyte chemotaxis … or mannose” value is listed as “unaffected”. For the same compound, in the assay on Human monocytes, the “monocyte chemotaxis … of lactose” value is given as “abolished”, the “chemotactic response to f-MLF” value is listed as “does not alter” and the “chemotactic potency compared with f-MLF” value is given as “considerably more potent”.

Consider “VGVAPG (Immunomodulatory peptide) [SEQ ID NO:19, reference compound]”, for which the monocyte migration result in the assay with Human monocytes (0.1 nmol/L - 10 nmol/L in the lower wells) is on record as “concentration-dependent increase”. In the assay on Human monocytes, the “monocyte chemotaxis … or mannose” value was “unaffected” and the “monocyte chemotaxis … of lactose” value is on record as “abolished”.
